Assay results: patent publication US5472954A, “Cyclodextrin complexation” (priority 1993, dated 1995)
Values after ≈ are worked out from the molar mass of the structure shown.

What was measured:
[1] = physchem
[2] = Solubility of various drugs: effect of CMC in aqueous HPβCD solutions (Example 1); conditions: for S4 /S3: 0.25% CMC + 10% HPβCD vs 10% HPβCD
[3] = physchem; remark: listed apart in the source
[4] = Effect of PVP on the solubilization of drugs in aqueous HPβCD solutions (Example 7); conditions: for S4 /S3: with vs without 0.25% PVP
[5] = physchem; remark: listed apart in the source
Description: An excess amount of the compound to be tested was added to each solvent and the suspensions which formed were heated in sealed containers to 120° C. The solubility of salicylic acid was determined in acidic (HCl) solution.

[6] = physchem; conditions: 10% heβcd
[7] = physchem; remark: listed apart in the source
[8] = HPβCD with CMC / HPβCD without polymer (S6)
[9] = HPβCD with HPMC / HPβCD without polymer (S8)
[10] = HPβCD with PVP / HPβCD without polymer (S7)

Row | Structure (SMILES) | solubility ([1]; 0.25% cmc + 10% hpbetacd) [µg/mL] | solubility ([1]; aqueous 0.25% cmc) [µg/mL] | solubility ([1]; aqueous 10% hpbetacd) [µg/mL] | solubility ([1]; water) [µg/mL] | S4 /S3 [2] | solubility at 72 h ([3]; 0.25% pvp, 10% hpβcd) [µg/mL] | solubility at 72 h ([3]; 10% hpβcd ms 0.7) [µg/mL] | solubility at 72 h ([3]; aqueous 0.25% pvp) [µg/mL] | solubility at 72 h ([3]; water) [µg/mL] | solubility ratio [5, 8] | solubility ratio [5, 9] | also measured
1 | CCOc1ccc2nc(S(N)(=O)=O)sc2c1 [Ethoxyzolamide] | 1660 | 70 (≈ 0.271 mM) | 1190 (≈ 4.61 mM) | 40 (≈ 0.155 mM) | 1.39 | 2720 (≈ 10.5 mM) | 1360 (≈ 5.26 mM) | 60 (≈ 0.232 mM) | 40 (≈ 0.155 mM) | – | – | S4 /S3 [4]: 2.00
2 | CN(C)c1ccc(N=Nc2ccccc2)cc1 [Methylyellow] | – | – | – | – | – | – | – | – | – | 1.04 | 1.09 | solubility ([5]; 0.25% hpmc + 10% hpβcd): 250 µg/mL; solubility ([5]; 0.25% pvp + 10% hpβcd): 240 µg/mL; solubility ratio [5, 10]: 1.04; solubility ([5]; aqueous 0.25% cmc): 0.85 µg/mL (≈ 0.00377 mM); solubility ([5]; aqueous 0.25% cmc, 10% hpβcd): 240 µg/mL (≈ 1.07 mM); solubility ([5]; aqueous 0.25% hpmc): 0.75 µg/mL (≈ 0.00333 mM); solubility ([5]; aqueous 0.25% pvp): 0.85 µg/mL (≈ 0.00377 mM); solubility ([5]; aqueous 10% hpβcd): 230 µg/mL (≈ 1.02 mM); solubility ([5]; water): 0.64 µg/mL (≈ 0.00284 mM)
3 | Clc1ccc(COC(Cn2ccnc2)c2ccc(Cl)cc2Cl)c(Cl)c1 (stereo not shown) [Miconazole, miconazole] | 2500 | 60 (≈ 0.144 mM) | 1980 (≈ 4.76 mM) | 40 (≈ 0.0961 mM) | – | 3400 (≈ 8.17 mM) | 2360 (≈ 5.67 mM) | 200 (≈ 0.481 mM) | 40 (≈ 0.0961 mM) | – | – | solubility at 72 h ([6]; 0.25% cmc): 3310 µg/mL (≈ 7.95 mM); solubility at 72 h [6]: 2510 µg/mL (≈ 6.03 mM); solubility ([7]; 0.25% cmc in water): 60 µg/mL (≈ 0.144 mM); solubility ([7]; 0.25% cmc, 10% hpbcd): 2500 µg/mL (≈ 6.01 mM); solubility ([7]; 10% ethanol in water, organic solvent or mixture): 310 µg/mL (≈ 0.745 mM); solubility ([7]; 10% ethanol, 10% hpbcd, organic solvent or mixture): 2220 µg/mL (≈ 5.33 mM); solubility ([7]; 10% hpbcd in water): 1980 µg/mL (≈ 4.76 mM); solubility ([7]; ethanol, cmc, hpbcd, organic solvent or mixture): 12600 µg/mL (≈ 30.2 mM); solubility ([7]; water): 40 µg/mL (≈ 0.0961 mM)
4 | C[C@]12C=CC(=O)C=C1CC[C@@H]1[C@@H]2[C@@H](O)C[C@@]2(C)[C@H]1CC[C@]2(O)C(=O)CO [Prednisolone, prednisolone] | 15300 | 530 (≈ 1.47 mM) | 13600 (≈ 37.7 mM) | 380 (≈ 1.05 mM) | 1.13 | – | – | – | – | – | – | –
5 | CC(=O)[C@H]1CC[C@H]2[C@@H]3CCC4=CC(=O)CC[C@]4(C)[C@H]3CC[C@]12C [Progesterone, progesterone] | – | – | – | – | 1.52 | – | – | – | – | – | – | solubility ([2]; 0.25% cmc + 10% hpbetacd): 6110 µg/mL; solubility ([2]; aqueous 10% hpbetacd): 4030 µg/mL (≈ 12.8 mM); solubility at 72 h ([4]; 0.25% pvp, 10% hpβcd): 5710 µg/mL (≈ 18.2 mM); solubility at 72 h ([4]; 10% hpβcd ms 0.7): 4760 µg/mL (≈ 15.1 mM); S4 /S3 [4]: 1.20
6 | O=C(O)c1ccccc1O [Salicylic acid] | – | – | – | – | – | – | – | – | – | 1.14 | 1.06 | solubility ([5]; 10% hpβcd acidic hcl solution): 3710 µg/mL (≈ 26.9 mM); solubility ratio [5, 10]: 1.10; solubility ([5]; acidic hcl, cmc, hpβcd): 4230 µg/mL (≈ 30.6 mM); solubility ([5]; hpmc/hpβcd acidic hcl solution): 3920 µg/mL (≈ 28.4 mM); solubility ([5]; pvp/hpβcd acidic hcl solution): 4070 µg/mL (≈ 29.5 mM)
7 | CC1(C)O[C@@H]2C[C@H]3[C@@H]4CCC5=CC(=O)C=C[C@]5(C)[C@@]4(F)[C@@H](O)C[C@]3(C)[C@]2(C(=O)CO)O1 [Triamcinolone acetonide, triamcinolone acetonide] | 2580 | 70 (≈ 0.161 mM) | 2090 (≈ 4.81 mM) | 30 (≈ 0.069 mM) | – | – | – | – | – | – | – | –
8 | COc1cc(Cc2cnc(N)nc2N)cc(OC)c1OC [Trimethoprim] | – | – | – | – | – | 6470 (≈ 22.3 mM) | 2830 (≈ 9.75 mM) | 1350 (≈ 4.65 mM) | 820 (≈ 2.82 mM) | – | – | –
9 | COc1cc(C=O)ccc1O [Vanillin] | – | – | – | – | – | – | – | – | – | 1.09 | 1.06 | solubility ([5]; 0.25% hpmc + 10% hpβcd): 26500 µg/mL; solubility ([5]; aqueous 0.25% cmc): 13700 µg/mL (≈ 90 mM); solubility ([5]; aqueous 0.25% cmc, 10% hpβcd): 27300 µg/mL (≈ 179 mM); solubility ([5]; aqueous 0.25% hpmc): 17100 µg/mL (≈ 112 mM); solubility ([5]; aqueous 0.25% pvp): 11500 µg/mL (≈ 75.6 mM); solubility ([5]; aqueous 10% hpβcd): 25000 µg/mL (≈ 164 mM); solubility ([5]; water): 13900 µg/mL (≈ 91.4 mM)
